Reference: the supplement of paper PMC10307832

Columns and labels:
Assay in all cases: relative viability (nuclei count vs DMSO), 5 days (fraction); higher = more cells survive
[1] = compound: CCn1c(-c2nonc2N)nc2cnc(Oc3cccc(NC(=O)c4ccc(OCCN5CCOCC5)cc4)c3)cc21 + COc1cccc2cc(-c3nc([C@H]4CC[C@H](C(=O)O)CC4)n4ncnc(N)c34)[nH]c12 [OSI-027] (partner 0.5 µM)
In short: (§1)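 After 5 days of treatment, lung cancer cells in 1536-well plates were fixed and stained in a single step (final 0.05% Triton X-100, 1% formaldehyde, 1 ug/ml Hoechst) and their nuclei counted on 4× images. Treatment had been applied by pin tool the day after seeding as one drug alone or as a fixed anchor-drug dose with five library-drug doses (not always all listed) in √10 steps. Relative viability is the nuclei count of treated wells divided by that of vehicle wells, and values are medians of duplicate plates.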

[2] = compound: CCn1c(-c2nonc2N)nc2cnc(Oc3cccc(NC(=O)c4ccc(OCCN5CCOCC5)cc4)c3)cc21 + Nc1nc2[nH]cc(CCc3ccc(C(=O)N[C@@H](CCC(=O)O)C(=O)O)cc3)c2c(=O)[nH]1 [Pemetrexed] (partner 0.2 µM)
In short: as §1

Mirin + Foretinib = compound: N=C1NC(=O)/C(=C/c2ccc(O)cc2)S1 [Mirin] + COc1cc2c(Oc3ccc(NC(=O)C4(C(=O)Nc5ccc(F)cc5)CC4)cc3F)ccnc2cc1OCCCN1CCOCC1 [Foretinib] (partner 0.25 µM)
In short: as §1

Mirin + Phenformin = compound: N=C1NC(=O)/C(=C/c2ccc(O)cc2)S1 [Mirin] + N=C(N)NC(=N)NCCc1ccccc1 [Phenformin] (partner 250 µM)
In short: as §1

Work on UMC-11 yielded a relative viability ([1]; first compound 0.04 µM) of 0.44, a relative viability ([1]; first compound 0.1265 µM) of 0.41 and a relative viability ([1]; first compound 0.4 µM) of 0.355. For the same cell line, the relative viability ([1]; first compound 1.265 µM) was 0.208, the relative viability ([1]; first compound 4 µM) was 0.179 and the relative viability ([2]; first compound 0.04 µM) was 0.813. For the same cell line, the relative viability ([2]; first compound 0.1265 µM) was 0.596, the relative viability ([2]; first compound 0.4 µM) was 0.613 and the relative viability ([2]; first compound 1.265 µM) was 0.283. For the same cell line, the relative viability ([2]; first compound 4 µM) was 0.231, the relative viability (Mirin + Foretinib; first compound 0.25 µM) was 1.03 and the relative viability (Mirin + Foretinib; first compound 0.7906 µM) was 1.05. For the same cell line, the relative viability (Mirin + Foretinib; first compound 2.5 µM) was 1, the relative viability (Mirin + Foretinib; first compound 7.906 µM) was 0.918 and the relative viability (Mirin + Foretinib; first compound 25 µM) was 0.61. It also gave a relative viability (Mirin + Phenformin; first compound 0.25 µM) of 0.351, a relative viability (Mirin + Phenformin; first compound 0.7906 µM) of 0.272 and a relative viability (Mirin + Phenformin; first compound 2.5 µM) of 0.334. It also gave a relative viability (Mirin + Phenformin; first compound 7.906 µM) of 0.32 and a relative viability (Mirin + Phenformin; first compound 25 µM) of 0.236.
